Measurements taken from the supplement of paper PMC13380429.

Legend:
[1] = tested on: A549-ACE2 infected with SARS-CoV-2; assay: morphology score (similarity to uninfected cells); higher = more like uninfected cells; conditions: 24 h
Vero E6 [2] = assay: cell viability relative to DMSO; higher = less toxic; conditions: 72 h
HepG2 [3] = assay: as above; conditions: 72 h
U2OS [4] = assay: as above; conditions: 72 h
Caco-2 [5] = assay: as above; conditions: 72 h
Calu-3 [6] = assay: as above; conditions: 72 h
A549-ACE2 [7] = assay: phospholipidosis EC50; higher = less potent phospholipidosis inducer
A549-ACE2 [8] = assay: drug-induced phospholipidosis relative to tamoxifen; higher = more phospholipidosis
[9] = tested on: A549-ACE2 infected with SARS-CoV-2; assay: SARS-CoV-2 infection rate relative to DMSO; higher = more infection; conditions: 24 h
Vero E6 [10] = assay: relative viability EC50 (midpoint between 100% and the lowest measured viability); higher = less toxic; conditions: 72 h
HepG2 [11] = assay: as above; conditions: 72 h
Caco-2 [12] = assay: as above; conditions: 72 h
Calu-3 [13] = assay: as above; conditions: 72 h
Vero E6 [14] = assay: drug sensitivity score (DSS) for viability; higher = more toxic; extreme values may be limits of the assay; conditions: 72 h
HepG2 [15] = assay: as above; conditions: 72 h
U2OS [16] = assay: as above; conditions: 72 h
Caco-2 [17] = assay: as above; conditions: 72 h
Calu-3 [18] = assay: as above; conditions: 72 h
[19] = tested on: A549-ACE2 infected with SARS-CoV-2; assay: cell count relative to DMSO; higher = less toxic; conditions: 24 h
U2OS [20] = assay: relative viability EC50 (midpoint between 100% and the lowest measured viability); higher = less toxic; conditions: 72 h

COc1ccc(NC(=O)c2ccc(-c3ccc(-c4noc(C)n4)cc3C)cc2)cc1N1CCN(C)CC1
Conditions	SARS-CoV-2 infection rate [%]	cell count [%]	cell viability [%]	morphology score	phospholipidosis EC50 [nM]
A549-ACE2 [7], 24 h	–	–	–	–	719
A549-ACE2 [7], 48 h	–	–	–	–	984
A549-ACE2 [7], 72 h	–	–	–	–	1270
Caco-2 [5], 1 nM	–	–	105	–	–
Caco-2 [5], 10 nM	–	–	92.5	–	–
Caco-2 [5], 100 nM	–	–	98.8	–	–
Caco-2 [5], 1000 nM	–	–	94.4	–	–
Caco-2 [5], 10000 nM	–	–	42.8	–	–
Calu-3 [6], 1 nM	–	–	110	–	–
Calu-3 [6], 10 nM	–	–	109	–	–
Calu-3 [6], 100 nM	–	–	99.2	–	–
Calu-3 [6], 1000 nM	–	–	102	–	–
Calu-3 [6], 10000 nM	–	–	7.9	–	–
HepG2 [3], 1 nM	–	–	97.5	–	–
HepG2 [3], 10 nM	–	–	109	–	–
HepG2 [3], 100 nM	–	–	98.9	–	–
HepG2 [3], 1000 nM	–	–	103	–	–
HepG2 [3], 10000 nM	–	–	19.1	–	–
U2OS [4], 1 nM	–	–	103	–	–
U2OS [4], 10 nM	–	–	102	–	–
U2OS [4], 100 nM	–	–	106	–	–
U2OS [4], 1000 nM	–	–	99.3	–	–
U2OS [4], 10000 nM	–	–	54.2	–	–
Vero E6 [2], 1 nM	–	–	106	–	–
Vero E6 [2], 10 nM	–	–	101	–	–
Vero E6 [2], 100 nM	–	–	105	–	–
Vero E6 [2], 1000 nM	–	–	96.6	–	–
Vero E6 [2], 10000 nM	–	–	31.6	–	–
[1], 0.1 µM	–	–	–	-0.16	–
[1], 0.3 µM	–	–	–	0.15	–
[1], 1 µM	–	–	–	0.46	–
[1], 3 µM	–	–	–	0.78	–
[9], 0.1 µM	106	–	–	–	–
[9], 0.3 µM	99	–	–	–	–
[9], 1 µM	85	–	–	–	–
[9], 3 µM	31	–	–	–	–
[19], 0.1 µM	–	97	–	–	–
[19], 0.3 µM	–	104	–	–	–
[19], 1 µM	–	109	–	–	–
[19], 3 µM	–	117	–	–	–

drug-induced phospholipidosis [%], A549-ACE2 [8]
Conditions	0.3 µM	0.833333 µM	3.33333 µM	6.66667 µM	10 µM	30 µM
24 h	2.12	35	61.8	56.7	35.2	28.3
48 h	4.59	17.3	79.1	76.8	56.3	–
72 h	4.03	12.8	79.8	80.8	–	–

Conditions	drug sensitivity score	relative viability EC50 [nM]
Caco-2 [12]	–	2360
Caco-2 [17]	4	–
Calu-3 [13]	–	3270
Calu-3 [18]	5	–
HepG2 [11]	–	3380
HepG2 [15]	4.2	–
U2OS [16]	2.5	–
Vero E6 [10]	–	2790
Vero E6 [14]	4.2	–

C[C@@H](Oc1cc(-n2cnc3ccc(CN4CCN(C)CC4)cc32)sc1C(N)=O)c1ccccc1C(F)(F)F
Conditions	SARS-CoV-2 infection rate [%]	cell count [%]	cell viability [%]	morphology score	phospholipidosis EC50 [nM]
A549-ACE2 [7], 24 h	–	–	–	–	2900
Caco-2 [5], 1 nM	–	–	96.8	–	–
Caco-2 [5], 10 nM	–	–	95.2	–	–
Caco-2 [5], 100 nM	–	–	67.2	–	–
Caco-2 [5], 1000 nM	–	–	62.7	–	–
Caco-2 [5], 10000 nM	–	–	68.5	–	–
Calu-3 [6], 1 nM	–	–	105	–	–
Calu-3 [6], 10 nM	–	–	86.9	–	–
Calu-3 [6], 100 nM	–	–	84.5	–	–
Calu-3 [6], 1000 nM	–	–	84.8	–	–
Calu-3 [6], 10000 nM	–	–	36.1	–	–
HepG2 [3], 1 nM	–	–	98.2	–	–
HepG2 [3], 10 nM	–	–	101	–	–
HepG2 [3], 100 nM	–	–	23.9	–	–
HepG2 [3], 1000 nM	–	–	19.4	–	–
HepG2 [3], 10000 nM	–	–	8	–	–
U2OS [4], 1 nM	–	–	104	–	–
U2OS [4], 10 nM	–	–	101	–	–
U2OS [4], 100 nM	–	–	67.9	–	–
U2OS [4], 1000 nM	–	–	51.8	–	–
U2OS [4], 10000 nM	–	–	48.8	–	–
Vero E6 [2], 1 nM	–	–	101	–	–
Vero E6 [2], 10 nM	–	–	104	–	–
Vero E6 [2], 100 nM	–	–	77.2	–	–
Vero E6 [2], 1000 nM	–	–	64.6	–	–
Vero E6 [2], 10000 nM	–	–	36	–	–
[1], 0.1 µM	–	–	–	0.01	–
[1], 0.3 µM	–	–	–	0.06	–
[1], 1 µM	–	–	–	0.19	–
[1], 3 µM	–	–	–	0.65	–
[9], 0.1 µM	104	–	–	–	–
[9], 0.3 µM	101	–	–	–	–
[9], 1 µM	103	–	–	–	–
[9], 3 µM	36	–	–	–	–
[19], 0.1 µM	–	60	–	–	–
[19], 0.3 µM	–	55	–	–	–
[19], 1 µM	–	61	–	–	–
[19], 3 µM	–	62	–	–	–

A549-ACE2 [8], 24 h
Conditions	drug-induced phospholipidosis [%]
0.3 µM	14.3
0.833333 µM	26.9
3.33333 µM	156
6.66667 µM	198
10 µM	260
30 µM	246

Conditions	drug sensitivity score	relative viability EC50 [nM]
Caco-2 [17]	11.1	–
Calu-3 [13]	–	1730
Calu-3 [18]	5.5	–
HepG2 [11]	–	54
HepG2 [15]	25.5	–
U2OS [16]	13.3	–
U2OS [20]	–	80.4
Vero E6 [10]	–	444
Vero E6 [14]	9.3	–

O=C1NC(=O)C(c2cnc3ccccn23)=C1c1cn2c3c(cc(F)cc13)CN(C(=O)N1CCCCC1)CC2
Conditions	SARS-CoV-2 infection rate, [9] [%]	cell count, [19] [%]	cell viability, Caco-2 [5] [%]	cell viability, Calu-3 [6] [%]	cell viability, HepG2 [3] [%]	cell viability, U2OS [4] [%]	cell viability, Vero E6 [2] [%]	morphology score, [1]
1 nM	–	–	104	101	121	108	105	–
10 nM	–	–	109	111	113	112	105	–
100 nM	–	–	87.3	80	109	99.5	95.9	–
0.3 µM	114	79	–	–	–	–	–	-0.23
1000 nM	–	–	70.5	68.1	94	94.2	66.1	–
3 µM	108	75	–	–	–	–	–	-0.14
10 µM	92	72	–	–	–	–	–	-0.05
10000 nM	–	–	47.3	61	56.7	80.3	77.9	–
30 µM	49	50	–	–	–	–	–	0.41

A549-ACE2 [8], 24 h
Conditions	drug-induced phospholipidosis [%]
0.3 µM	-5.51
0.833333 µM	-3
3.33333 µM	-2.04
6.66667 µM	-0.59
10 µM	12.5

Conditions	drug sensitivity score	relative viability EC50 [nM]
Caco-2 [12]	–	624
Caco-2 [17]	6.7	–
Calu-3 [18]	9.5	–
HepG2 [15]	3.2	–
U2OS [16]	1.3	–
U2OS [20]	–	> 10000
Vero E6 [14]	6.6	–

CN1CCCCC1Cn1cc(C(=O)c2cc([N+](=O)[O-])ccc2I)c2ccccc21 (stereo unspecified) [AM-1241]
Conditions	SARS-CoV-2 infection rate, [9] [%]	cell count, [19] [%]	cell viability, Caco-2 [5] [%]	cell viability, Calu-3 [6] [%]	cell viability, HepG2 [3] [%]	cell viability, U2OS [4] [%]	cell viability, Vero E6 [2] [%]	morphology score, [1]
1 nM	–	–	92.7	103	89.1	94	95.4	–
10 nM	–	–	92.8	103	101	97.6	99.2	–
100 nM	–	–	100	99.3	107	91.7	96.5	–
0.3 µM	107	104	–	–	–	–	–	0.18
1000 nM	–	–	94.4	94.4	102	98.1	97.1	–
3 µM	85	109	–	–	–	–	–	0.36
10 µM	63	118	–	–	–	–	–	0.87
10000 nM	–	–	97.8	104	102	99	106	–
30 µM	33	115	–	–	–	–	–	0.66

drug-induced phospholipidosis [%], A549-ACE2 [8]
Conditions	0.3 µM	0.833333 µM	3.33333 µM	6.66667 µM	10 µM	30 µM
24 h	-1.12	0.49	3.57	9.5	15.9	81.8
48 h	-0.88	-2.35	0.06	1.85	8.12	104
72 h	-1.12	-4.89	-3.06	1.99	5.24	111

Conditions	drug sensitivity score	relative viability EC50 [nM]
Caco-2 [12]	–	> 10000
Caco-2 [17]	0	–
Calu-3 [13]	–	> 10000
Calu-3 [18]	0	–
HepG2 [11]	–	> 10000
HepG2 [15]	0	–
U2OS [16]	0	–
U2OS [20]	–	> 10000
Vero E6 [10]	–	> 10000
Vero E6 [14]	0	–
